Measured values: patent US20030229451A1, “Methods and systems for analyzing complex biological systems” (priority 2001, published 2003)

Assays:
[1] = test system: Arabidopsis thaliana plants; test: SOA1 phenotypic analysis of herbicide-treated Arabidopsis (MIC, Tmic, leaf traits); type: in vivo
Magnaporthe grisea = type: cell-based
Arabidopsis thaliana [2] = test: MOA1 gene expression profiling (22,000 gene array); settings: for Regulated Genes: Down / Regulated Genes: Up: 1 hr, p < 0.5; for No. of Lethal Genes Altered: genes essential for plant growth and development
Arabidopsis thaliana [3] = test: MOA1 biochemical (metabolite) profiling by LC-MS and GC-MS
[4] = numeric value standardized to mock treated
[5] = concentrations insufficient to inhibit growth

| SMILES | Regulated Genes: Down (Arabidopsis thaliana [2]) | Regulated Genes: Up (Arabidopsis thaliana [2]) | No. of Lethal Genes Altered (Arabidopsis thaliana [2]) | Number of Metabolites Changed: (unknown #) (Arabidopsis thaliana [3]; 20 min, p < 0.05) | Number of Metabolites Changed: Total # (Arabidopsis thaliana [3]; 20 min, p < 0.05) | Number of Metabolites Changed: (unknown #) (Arabidopsis thaliana [3]; 20 min, p < 0.11) | Number of Metabolites Changed: Total # (Arabidopsis thaliana [3]; 20 min, p < 0.11) | Number of Metabolites Changed: (unknown #) (Arabidopsis thaliana [3]; 1 hr, p < 0.05) | Number of Metabolites Changed: Total # (Arabidopsis thaliana [3]; 1 hr, p < 0.05) | Number of Metabolites Changed: (unknown #) (Arabidopsis thaliana [3]; 1 hr, p < 0.11) | Number of Metabolites Changed: Total # (Arabidopsis thaliana [3]; 1 hr, p < 0.11) | further results |
| --- | --- | --- | --- | --- | --- | --- | --- | --- | --- | --- | --- | --- |
| CP(=O)(O)CCC(N)C(=O)O (stereo not shown) [Glufosinate] | 54 | 296 | 10 | 25 | 33 | 33 | 48 | 4 (4) | 4 (4) | 9 (9) | 9 (9) | characteristic morphological symptoms ([1]; herbicide-treated Arabidopsis): Chlorosis and leaf curling; leafCurling Dev. [1, 4]: 2; leafTwisting Dev. [1, 4]: 1; leafWidth Dev. [1, 4]: −2; matureLeafAnthocyanins Dev. [1, 4]: 0; matureLeafChlorosis Dev. [1, 4]: 3; matureLeafNecrosis Dev. [1, 4]: 0; newLeafAnthocyanins Dev. [1, 4]: 0; newLeafChlorosis Dev. [1, 4]: 3; newLeafNecrosis Dev. [1, 4]: 0; pointedLeaves Dev. [1, 4]: 1; tMic Dev. ([1]; time to full range of symptoms at MIC, coded): 1; nitrogen source utilization by M. grisea (Magnaporthe grisea; in the presence of compound): only able to utilize glutamine and glutamate as nitrogen sources |
| CS(=O)(=O)c1cc(C(F)(F)F)ccc1C(=O)c1cnoc1C1CC1 [Isoxaflutole] | 370 | 143 | 15 | 29 | 45 | 39 | 62 | 13 | 14 | 21 | 25 | growth of M. grisea in minimal media (Magnaporthe grisea; [5]): unaffected; growth of M. grisea in minimal plus tyrosine media (Magnaporthe grisea; [5]): inhibited; phenylalanine level (Arabidopsis thaliana [3]; relative to the control): up-regulated; tyrosine level (Arabidopsis thaliana [3]; relative to the control): up-regulated; Alpha-tocopherol level (Arabidopsis thaliana [3]; relative to the control, early time points): not significantly changed |
